Calls of active or inactive are those of the source. No cut-off for these calls is given here.
Key:
ECa-109 cell line [1] = assay: Induction of apoptosis in human EC109 cells assessed as late apoptotic cells at 10 uM incubated for 48 hrs by Annexin V/PI staining based flow cytometry method (reference value: 6.17%); format: functional
HepG2 [2] = assay: Induction of apoptosis in human HepG2 cells assessed as necrotic cells at 5 uM incubated for 48 hrs by Annexin V/PI staining based flow cytometry method (reference value: 0.57%); format: functional
HepG2 [3] = assay: Induction of apoptosis in human HepG2 cells assessed as downregulation of cyclin D1 protein expression by Western blotting analysis; format: functional, cell-based; conditions: dose 2.5-20 µM, DDE = dose-dependent effect
HepG2 [4] = assay: Induction of apoptosis in human HepG2 cells assessed as early apoptotic cells at 5 uM incubated for 48 hrs by Annexin V/PI staining based flow cytometry method (reference value: 3.31%); format: functional
HepG2 [5] = assay: Inhibition of cell migration in human HepG2 cells incubated for 48 hrs by microscopic analysis based wound healing assay; format: functional; conditions: dose 5-10 µM, DDE = dose-dependent effect
HepG2 [6] = assay: Induction of apoptosis in human HepG2 cells assessed as necrotic cells at 20 uM incubated for 48 hrs by Annexin V/PI staining based flow cytometry method (reference value: 0.57%); format: functional
ECa-109 cell line [7] = assay: Induction of apoptosis in human EC109 cells assessed as viable cells at 20 uM incubated for 48 hrs by Annexin V/PI staining based flow cytometry method (reference value: 91.7%); format: functional; conditions: read-out: Activity
[8] = Inhibition of IL-6/JAK/STAT3 signalling pathway in HEK-blue IL-6 cells incubated for 16 hrs by SEAP reporter gene based QUANTI- blue assay; format: cell-based; conditions: Homo sapiens, HEK-Blue IL-6, 16 h
[9] = molecular target: Signal transducer and activator of transcription 3 (Homo sapiens) (UniProt P40763); assay: Inhibition of STAT3 dimerization in human HepG2 cells assessed as increase in STAT3 monomer expression at 5 to 10 uM incubated for 24 hrs by DSS crosslink assay; format: cell-based; conditions: dose 5-10 µM
Signal transducer and activator of transcription 3 (Homo sapiens), sequence (P40763 whole entry): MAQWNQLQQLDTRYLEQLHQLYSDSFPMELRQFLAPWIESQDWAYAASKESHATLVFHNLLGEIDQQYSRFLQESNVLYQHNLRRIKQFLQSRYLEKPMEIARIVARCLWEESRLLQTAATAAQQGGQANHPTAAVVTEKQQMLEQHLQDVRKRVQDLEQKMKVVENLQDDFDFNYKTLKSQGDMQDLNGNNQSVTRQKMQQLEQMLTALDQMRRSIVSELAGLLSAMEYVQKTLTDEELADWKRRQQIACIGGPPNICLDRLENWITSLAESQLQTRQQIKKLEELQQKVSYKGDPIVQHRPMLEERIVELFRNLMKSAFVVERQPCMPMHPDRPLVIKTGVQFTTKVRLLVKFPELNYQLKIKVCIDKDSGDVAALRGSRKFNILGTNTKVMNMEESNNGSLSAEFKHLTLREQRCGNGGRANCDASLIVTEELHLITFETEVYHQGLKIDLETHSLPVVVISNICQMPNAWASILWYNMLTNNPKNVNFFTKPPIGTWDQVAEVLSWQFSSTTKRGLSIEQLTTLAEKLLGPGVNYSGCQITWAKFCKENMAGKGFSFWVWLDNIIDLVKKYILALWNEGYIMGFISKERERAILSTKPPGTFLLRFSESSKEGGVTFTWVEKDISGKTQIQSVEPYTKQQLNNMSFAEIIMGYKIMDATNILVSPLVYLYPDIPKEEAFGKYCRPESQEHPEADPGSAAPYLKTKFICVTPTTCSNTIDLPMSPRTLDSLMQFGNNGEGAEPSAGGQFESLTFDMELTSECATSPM

HepG2 [10] = assay: Antitumor activity against human HepG2 cells xenografted in BALB/c athymic nude mouse assessed as tumor growth inhibition at 40 mg/kg, ip administered daily for 24 days relative to control; format: functional; conditions: HepG2, 576 h, time 24 day, read-out: TGI
HepG2 [11] = assay: Induction of apoptosis in human HepG2 cells assessed as necrotic cells at 10 uM incubated for 48 hrs by Annexin V/PI staining based flow cytometry method (reference value: 0.57%); format: functional
HepG2 [12] = assay: Induction of apoptosis in human HepG2 cells assessed as early apoptotic cells at 20 uM incubated for 48 hrs by Annexin V/PI staining based flow cytometry method (reference value: 3.31%); format: functional
HepG2 [13] = assay: Antitumor activity against human HepG2 cells assessed as reduction in cell viability incubated for 72 hrs by MTT assay; format: functional, cell-based; conditions: HepG2, 72 h
ECa-109 cell line [14] = assay: Induction of cell cycle arrest in human EC109 cells assessed as downregulation of cyclin D1 protein expression by Western blotting analysis; format: functional, cell-based; conditions: dose 2.5-20 µM, DDE = dose-dependent effect
HepG2 [15] = assay: Induction of cell cycle arrest in human HepG2 cells assessed as accumulation of cells at G0/G1 phase incubated for 24 hrs by flow cytometric analysis (reference value: 66.65%); format: functional
ECa-109 cell line [16] = assay: Antitumor activity against human EC109 cells assessed as reduction in cell viability incubated for 72 hrs by MTT assay; format: functional, cell-based; conditions: ECa-109, 72 h
[17] = molecular target: Signal transducer and activator of transcription 3 (Homo sapiens) (UniProt P40763); assay: Binding affinity to STAT3 (unknown origin) expressed in Escherichia coli BL21 (DE3) assessed as thermal stability by measuring STAT3 accumulation at 55 to 80 degree C at 100 uM incubated for 30 mins by thermal shift assay
ECa-109 cell line [18] = assay: Inhibition of cell migration in human EC109 cells incubated for 48 hrs by microscopic analysis based wound healing assay; format: functional; conditions: dose 5-10 µM, DDE = dose-dependent effect
HepG2 [19] = assay: Induction of apoptosis in human HepG2 cells assessed as late apoptotic cells at 5 uM incubated for 48 hrs by Annexin V/PI staining based flow cytometry method (reference value: 3.64%); format: functional
[20] = molecular target: Signal transducer and activator of transcription 3 (Homo sapiens) (UniProt P40763); assay: Inhibition of IL-6 induced STAT3 phosphorylation at Tyr705 residue in human EC109 cells preincubated for 16 hrs followed by IL-6 stimulation for 30 mins by Western blot analysis; format: cell-based; conditions: dose 2.5-20 µM, DDE = dose-dependent effect
HepG2 [21] = assay: Antitumor activity against human HepG2 cells xenografted in BALB/c athymic nude mouse assessed as tumor growth inhibition at 20 mg/kg, ip administered daily for 24 days relative to control; format: functional; conditions: HepG2, 576 h, time 24 day, read-out: TGI
HepG2 [22] = assay: Antitumor activity against human HepG2 cells xenografted in BALB/c athymic nude mouse assessed as decrease in STAT3 phosphorylation at Y705 residues at 20 to 40 mg/kg, ip administered daily for 24 days; format: functional, organism-based; conditions: dose 20-40 mg/kg, time 24.0 day
ECa-109 cell line [23] = assay: Induction of apoptosis in human EC109 cells assessed as viable cells at 5 uM incubated for 48 hrs by Annexin V/PI staining based flow cytometry method (reference value: 91.7%); format: functional; conditions: read-out: Activity
ECa-109 cell line [24] = assay: Induction of apoptosis in human EC109 cells assessed as late apoptotic cells at 20 uM incubated for 48 hrs by Annexin V/PI staining based flow cytometry method (reference value: 6.17%); format: functional
ECa-109 cell line [25] = assay: Induction of apoptosis in human EC109 cells assessed as early apoptotic cells at 20 uM incubated for 48 hrs by Annexin V/PI staining based flow cytometry method (reference value: 1.36%); format: functional
ECa-109 cell line [26] = assay: Induction of apoptosis in human EC109 cells assessed as downregulation of MCL-1 protein expression by Western blotting analysis; format: functional, cell-based; conditions: dose 2.5-20 µM, DDE = dose-dependent effect
ECa-109 cell line [27] = assay: Induction of apoptosis in human EC109 cells assessed as early apoptotic cells at 5 uM incubated for 48 hrs by Annexin V/PI staining based flow cytometry method (reference value: 1.36%); format: functional
[28] = Toxicity in BALB/c athymic nude mouse xenografted with human HepG2 cells assessed as effect on body weight at 20 to 40 mg/kg, ip administered daily for 24 days; format: organism-based; conditions: in vivo, 576 h, dose 20-40 mg/kg, time 24 day
ECa-109 cell line [29] = assay: Induction of apoptosis in human EC109 cells assessed as viable cells at 10 uM incubated for 48 hrs by Annexin V/PI staining based flow cytometry method (reference value: 91.7%); format: functional; conditions: read-out: Activity
HepG2 [30] = assay: Induction of apoptosis in human HepG2 cells assessed as viable cells at 20 uM incubated for 48 hrs by Annexin V/PI staining based flow cytometry method (reference value: 92.5%); format: functional; conditions: read-out: Activity
HepG2 [31] = assay: Induction of cell cycle arrest in human HepG2 cells assessed as decrease in cells at S phase incubated for 24 hrs by flow cytometric analysis (reference value: 23.01%); format: functional; set-up: scale not given: the % may be the effect or the level left
ECa-109 cell line [32] = assay: Induction of apoptosis in human EC109 cells assessed as necrotic cells at 10 uM incubated for 48 hrs by Annexin V/PI staining based flow cytometry method (reference value: 0.73%); format: functional
HepG2 [33] = assay: Induction of apoptosis in human HepG2 cells assessed as downregulation of MCL-1 protein expression by Western blotting analysis; format: functional, cell-based; conditions: dose 2.5-20 µM, DDE = dose-dependent effect
[34] = Cytotoxicity against HEK-Blue IL-6 cells; format: toxicity, cell-based; conditions: human
ECa-109 cell line [35] = assay: Induction of cell cycle arrest in human EC109 cells assessed as decrease in cells at S phase incubated for 24 hrs by flow cytometric analysis (reference value: 36.08%); format: functional; set-up: scale not given: the % may be the effect or the level left

SMILES: CCCn1c(-c2cccc(OC)c2)nc2cc3nc(-c4cccc(OC)c4)n(CCC)c3cc21
- Activity (ECa-109 cell line [1]): 17.2%
- Activity (HepG2 [2]): 1.54%
- Activity (HepG2 [3]): Dde
- Activity (HepG2 [4]): 8.44%
- inhibition (HepG2 [5]): Dde
- Activity (HepG2 [6]): 0.91%
- viability at 20 µM (ECa-109 cell line [7]): 46.8%
- IC50 [8]: 2.61 µM
- inhibition [9]: Active
- inhibition in vivo at 40 mg/kg (HepG2 [10]): 47.3%
- Activity (HepG2 [11]): 1.49%
- Activity (HepG2 [12]): 29.9%
- IC50 (HepG2 [13]): 4.3 µM
- Activity (ECa-109 cell line [14]): Dde
- Activity (HepG2 [15]): 74.51%
- IC50 (ECa-109 cell line [16]): 3.63 µM
- Activity [17]: Active
- inhibition (ECa-109 cell line [18]): Dde
- Activity (HepG2 [19]): 13.4%
- inhibition [20]: Dde
- inhibition in vivo at 20 mg/kg (HepG2 [21]): 42.5%
- Activity (HepG2 [22]): Active
- viability at 5 µM (ECa-109 cell line [23]): 85.8%
- Activity (ECa-109 cell line [24]): 31.4%
- Activity (ECa-109 cell line [25]): 18.2%
- Activity (ECa-109 cell line [26]): Dde
- Activity (ECa-109 cell line [27]): 2.27%
- Activity [28]: Non-Toxic
- viability at 10 µM (ECa-109 cell line [29]): 70.5%
- viability at 20 µM (HepG2 [30]): 17.3%
- Activity (HepG2 [31]): 16.55%
- Activity (ECa-109 cell line [32]): 1.1%
- Activity (HepG2 [33]): Dde
- IC50 [34]: > 10 µM
- Activity (ECa-109 cell line [35]): 28.53%
